Key:
Tribolium castaneum [1] = test: Antifeedant activity against adult of Tribolium castaneum (red flour beetle) assessed as efficiency of conversion of ingested food at 300 ppm after 3 days relative to control; type: functional, Instar larval stage
Sitophilus zeamais [2] = test: Antifeedant activity against adult of Sitophilus zeamais assessed as feeding deterrence index at 3 ppm after 3 days relative to control; type: functional
Tribolium castaneum [3] = test: Antifeedant activity against adult of Tribolium castaneum (red flour beetle) assessed as relative growth rate at 3 ppm after 3 days relative to control; type: functional
Tribolium castaneum [4] = test: Antifeedant activity against adult of Tribolium castaneum (red flour beetle) assessed as efficiency of conversion of ingested food at 3 ppm after 3 days relative to control; type: functional
Tribolium castaneum [5] = test: Antifeedant activity against larvae of Tribolium castaneum (red flour beetle) assessed as efficiency of conversion of ingested food at 10 ppm after 3 days relative to control; type: functional, Instar larval stage
Tribolium castaneum [6] = test: Antifeedant activity against adult of Tribolium castaneum (red flour beetle) assessed as feeding deterrence index at 300 ppm after 3 days relative to control; type: functional
Sitophilus zeamais [7] = test: Antifeedant activity against adult of Sitophilus zeamais assessed as relative growth rate at 30 ppm after 3 days relative to control; type: functional
Tribolium castaneum [8] = test: Antifeedant activity against larvae of Tribolium castaneum (red flour beetle) assessed as feeding deterrence index at 30 ppm after 3 days relative to control; type: functional
Tribolium castaneum [9] = test: Antifeedant activity against larvae of Tribolium castaneum (red flour beetle) assessed as relative consumption rate at 10 ppm after 3 days relative to control; type: functional
Tribolium castaneum [10] = test: Antifeedant activity against adult of Tribolium castaneum (red flour beetle) assessed as relative consumption rate at 100 ppm after 3 days relative to control; type: functional
Sitophilus zeamais [11] = test: Antifeedant activity against adult of Sitophilus zeamais assessed as relative growth rate at 3 ppm after 3 days relative to control; type: functional
Tribolium castaneum [12] = test: Antifeedant activity against adult of Tribolium castaneum (red flour beetle) assessed as mortality at 300 ppm after 3 days relative to control; type: functional; details: 72 h
Sitophilus zeamais [13] = test: Antifeedant activity against adult of Sitophilus zeamais assessed as feeding deterrence index at 100 ppm after 3 days relative to control; type: functional
Tribolium castaneum [14] = test: Antifeedant activity against larvae of Tribolium castaneum (red flour beetle) assessed as feeding deterrence index at 100 ppm after 3 days relative to control; type: functional
Tribolium castaneum [15] = test: Antifeedant activity against larvae of Tribolium castaneum (red flour beetle) assessed as feeding deterrence index at 3 ppm after 3 days relative to control; type: functional
Tribolium castaneum [16] = test: Antifeedant activity against adult of Tribolium castaneum (red flour beetle) assessed as feeding deterrence index at 30 ppm after 3 days relative to control; type: functional
Tribolium castaneum [17] = test: Antifeedant activity against adult of Tribolium castaneum (red flour beetle) assessed as relative growth rate at 300 ppm after 3 days relative to control; type: functional
Tribolium castaneum [18] = test: Antifeedant activity against adult of Tribolium castaneum (red flour beetle) assessed as feeding deterrence index at 100 ppm after 3 days relative to control; type: functional
Sitophilus zeamais [19] = test: Antifeedant activity against adult of Sitophilus zeamais assessed as feeding deterrence index at 10 ppm after 3 days relative to control; type: functional
Sitophilus zeamais [20] = test: Antifeedant activity against adult of Sitophilus zeamais assessed as feeding deterrence index at 300 ppm after 3 days relative to control; type: functional
Sitophilus zeamais [21] = test: Antifeedant activity against adult of Sitophilus zeamais assessed as relative growth rate at 100 ppm after 3 days relative to control; type: functional
Tribolium castaneum [22] = test: Antifeedant activity against larvae of Tribolium castaneum (red flour beetle) assessed as relative growth rate at 30 ppm after 3 days relative to control; type: functional
Sitophilus zeamais [23] = test: Antifeedant activity against adult of Sitophilus zeamais assessed as feeding deterrence index at 30 ppm after 3 days relative to control; type: functional
Sitophilus zeamais [24] = test: Antifeedant activity against adult of Sitophilus zeamais assessed as mortality at 3 ppm after 3 days relative to control; type: functional; details: 72 h
Tribolium castaneum [25] = test: Antifeedant activity against larvae of Tribolium castaneum (red flour beetle) assessed as efficiency of conversion of ingested food at 30 ppm after 3 days relative to control; type: functional, Instar larval stage
Tribolium castaneum [26] = test: Antifeedant activity against larvae of Tribolium castaneum (red flour beetle) assessed as mortality at 10 ppm after 3 days relative to control; type: functional; details: 72 h
Tribolium castaneum [27] = test: Antifeedant activity against larvae of Tribolium castaneum (red flour beetle) assessed as mortality at 100 ppm after 3 days relative to control; type: functional; details: 72 h
Tribolium castaneum [28] = test: Antifeedant activity against adult of Tribolium castaneum (red flour beetle) assessed as mortality at 3 ppm after 3 days relative to control; type: functional; details: 72 h
Tribolium castaneum [29] = test: Antifeedant activity against larvae of Tribolium castaneum (red flour beetle) assessed as relative consumption rate at 100 ppm after 3 days relative to control; type: functional
Tribolium castaneum [30] = test: Antifeedant activity against larvae of Tribolium castaneum (red flour beetle) assessed as feeding deterrence index at 300 ppm after 3 days relative to control; type: functional
Tribolium castaneum [31] = test: Antifeedant activity against adult of Tribolium castaneum (red flour beetle) assessed as efficiency of conversion of ingested food at 30 ppm after 3 days relative to control; type: functional
Tribolium castaneum [32] = test: Antifeedant activity against adult of Tribolium castaneum (red flour beetle) assessed as relative consumption rate at 30 ppm after 3 days relative to control; type: functional
Sitophilus zeamais [33] = test: Antifeedant activity against adult of Sitophilus zeamais assessed as efficiency of conversion of ingested food at 300 ppm after 3 days relative to control; type: functional
Tribolium castaneum [34] = test: Antifeedant activity against larvae of Tribolium castaneum (red flour beetle) assessed as relative consumption rate at 300 ppm after 3 days relative to control; type: functional
Sitophilus zeamais [35] = test: Antifeedant activity against adult of Sitophilus zeamais assessed as mortality at 100 ppm after 3 days relative to control; type: functional; details: 72 h
Tribolium castaneum [36] = test: Antifeedant activity against adult of Tribolium castaneum (red flour beetle) assessed as relative consumption rate at 300 ppm after 3 days relative to control; type: functional
Tribolium castaneum [37] = test: Antifeedant activity against larvae of Tribolium castaneum (red flour beetle) assessed as relative growth rate at 10 ppm after 3 days relative to control; type: functional
Sitophilus zeamais [38] = test: Antifeedant activity against adult of Sitophilus zeamais assessed as relative consumption rate at 3 ppm after 3 days relative to control; type: functional
Sitophilus zeamais [39] = test: Antifeedant activity against adult of Sitophilus zeamais assessed as mortality at 10 ppm after 3 days relative to control; type: functional; details: 72 h
Tribolium castaneum [40] = test: Antifeedant activity against larvae of Tribolium castaneum (red flour beetle) assessed as relative growth rate at 3 ppm after 3 days relative to control; type: functional
Tribolium castaneum [41] = test: Antifeedant activity against larvae of Tribolium castaneum (red flour beetle) assessed as mortality at 300 ppm after 3 days relative to control; type: functional; details: 72 h
Tribolium castaneum [42] = test: Antifeedant activity against adult of Tribolium castaneum (red flour beetle) assessed as mortality at 10 ppm after 3 days relative to control; type: functional; details: 72 h
Tribolium castaneum [43] = test: Antifeedant activity against adult of Tribolium castaneum (red flour beetle) assessed as mortality at 100 ppm after 3 days relative to control; type: functional; details: 72 h
Sitophilus zeamais [44] = test: Antifeedant activity against adult of Sitophilus zeamais assessed as relative consumption rate at 300 ppm after 3 days relative to control; type: functional
Tribolium castaneum [45] = test: Antifeedant activity against larvae of Tribolium castaneum (red flour beetle) assessed as relative growth rate at 300 ppm after 3 days relative to control; type: functional
Tribolium castaneum [46] = test: Antifeedant activity against larvae of Tribolium castaneum (red flour beetle) assessed as feeding deterrence index at 10 ppm after 3 days relative to control; type: functional
Sitophilus zeamais [47] = test: Antifeedant activity against adult of Sitophilus zeamais assessed as mortality at 300 ppm after 3 days relative to control; type: functional; details: 72 h
Tribolium castaneum [48] = test: Antifeedant activity against adult of Tribolium castaneum (red flour beetle) assessed as efficiency of conversion of ingested food at 100 ppm after 3 days relative to control; type: functional

CC1=C2C(=O)O[C@@H](c3ccoc3)[C@]2(C)CCC1 [FRAXINELLONE]
Activity (Tribolium castaneum [1]): 10.07%
FDI (Sitophilus zeamais [2]): 2.92%
Activity (Tribolium castaneum [3]): 30.45 µg/mg/day
Activity (Tribolium castaneum [4]): 21.68%
Activity (Tribolium castaneum [5]): 20.9%
FDI (Tribolium castaneum [6]): 95.05%
Activity (Sitophilus zeamais [7]): 10.06 µg/mg/day
FDI (Tribolium castaneum [8]): 50.33%
Activity (Tribolium castaneum [9]): 198.13 µg/mg/day
Activity (Tribolium castaneum [10]): 60.43 µg/mg/day
Activity (Sitophilus zeamais [11]): 15.22 µg/mg/day
mortality at 300 ppm (Tribolium castaneum [12]): 4%
FDI (Sitophilus zeamais [13]): 54.09%
FDI (Tribolium castaneum [14]): 72.76%
FDI (Tribolium castaneum [15]): 11.65%
FDI (Tribolium castaneum [16]): 40.07%
Activity (Tribolium castaneum [17]): 1.48 µg/mg/day
FDI (Tribolium castaneum [18]): 69.28%
FDI (Sitophilus zeamais [19]): 15.68%
FDI (Sitophilus zeamais [20]): 77.77%
Activity (Sitophilus zeamais [21]): 7.05 µg/mg/day
Activity (Tribolium castaneum [22]): 23.22 µg/mg/day
FDI (Sitophilus zeamais [23]): 30.76%
mortality at 3 ppm (Sitophilus zeamais [24]): 0%
Activity (Tribolium castaneum [25]): 17.81%
mortality at 10 ppm (Tribolium castaneum [26]): 0%
mortality at 100 ppm (Tribolium castaneum [27]): 0%
mortality at 3 ppm (Tribolium castaneum [28]): 0%
Activity (Tribolium castaneum [29]): 127.99 µg/mg/day
FDI (Tribolium castaneum [30]): 95.68%
Activity (Tribolium castaneum [31]): 19.1%
Activity (Tribolium castaneum [32]): 83.91 µg/mg/day
Activity (Sitophilus zeamais [33]): 6.56%
Activity (Tribolium castaneum [34]): 30.12 µg/mg/day
mortality at 100 ppm (Sitophilus zeamais [35]): 0%
Activity (Tribolium castaneum [36]): 7.39 µg/mg/day
Activity (Tribolium castaneum [37]): 41.3 µg/mg/day
Activity (Sitophilus zeamais [38]): 133.85 µg/mg/day
mortality at 10 ppm (Sitophilus zeamais [39]): 0%
Activity (Tribolium castaneum [40]): 52.62 µg/mg/day
mortality at 300 ppm (Tribolium castaneum [41]): 12%
mortality at 10 ppm (Tribolium castaneum [42]): 0%
mortality at 100 ppm (Tribolium castaneum [43]): 0%
Activity (Sitophilus zeamais [44]): 35.29 µg/mg/day
Activity (Tribolium castaneum [45]): -8.44 µg/mg/day
FDI (Tribolium castaneum [46]): 24.45%
mortality at 300 ppm (Sitophilus zeamais [47]): 4%
Activity (Tribolium castaneum [48]): 17.57%

COc1c2ccccc2nc2occc12 [DICTAMNINE]
Activity (Tribolium castaneum [1]): 13.81%
FDI (Sitophilus zeamais [2]): 9.69%
Activity (Tribolium castaneum [3]): 29.56 µg/mg/day
Activity (Tribolium castaneum [4]): 21.25%
Activity (Tribolium castaneum [5]): 18.07%
FDI (Tribolium castaneum [6]): 81.24%
Activity (Sitophilus zeamais [7]): 12.08 µg/mg/day
FDI (Tribolium castaneum [8]): 38.52%
Activity (Tribolium castaneum [9]): 213.17 µg/mg/day
Activity (Tribolium castaneum [10]): 59.8 µg/mg/day
Activity (Sitophilus zeamais [11]): 15.71 µg/mg/day
mortality at 300 ppm (Tribolium castaneum [12]): 2%
FDI (Sitophilus zeamais [13]): 51.77%
FDI (Tribolium castaneum [14]): 64.42%
FDI (Tribolium castaneum [15]): 4.59%
FDI (Tribolium castaneum [16]): 32.38%
Activity (Tribolium castaneum [17]): 6.45 µg/mg/day
FDI (Tribolium castaneum [18]): 59.58%
FDI (Sitophilus zeamais [19]): 17.87%
FDI (Sitophilus zeamais [20]): 68.04%
Activity (Sitophilus zeamais [21]): 9.49 µg/mg/day
Activity (Tribolium castaneum [22]): 31.75 µg/mg/day
FDI (Sitophilus zeamais [23]): 30.99%
mortality at 3 ppm (Sitophilus zeamais [24]): 0%
Activity (Tribolium castaneum [25]): 20.53%
mortality at 10 ppm (Tribolium castaneum [26]): 0%
mortality at 100 ppm (Tribolium castaneum [27]): 0%
mortality at 3 ppm (Tribolium castaneum [28]): 0%
Activity (Tribolium castaneum [29]): 123.74 µg/mg/day
FDI (Tribolium castaneum [30]): 82.21%
Activity (Tribolium castaneum [31]): 18.35%
Activity (Tribolium castaneum [32]): 101.27 µg/mg/day
Activity (Sitophilus zeamais [33]): 6.81%
Activity (Tribolium castaneum [34]): 84.83 µg/mg/day
mortality at 100 ppm (Sitophilus zeamais [35]): 0%
Activity (Tribolium castaneum [36]): 22.21 µg/mg/day
Activity (Tribolium castaneum [37]): 47.56 µg/mg/day
Activity (Sitophilus zeamais [38]): 126.78 µg/mg/day
mortality at 10 ppm (Sitophilus zeamais [39]): 0%
Activity (Tribolium castaneum [40]): 52.88 µg/mg/day
mortality at 300 ppm (Tribolium castaneum [41]): 4%
mortality at 10 ppm (Tribolium castaneum [42]): 0%
mortality at 100 ppm (Tribolium castaneum [43]): 0%
Activity (Sitophilus zeamais [44]): 35.13 µg/mg/day
Activity (Tribolium castaneum [45]): 7.08 µg/mg/day
FDI (Tribolium castaneum [46]): 21.77%
mortality at 300 ppm (Sitophilus zeamais [47]): 0%
Activity (Tribolium castaneum [48]): 17.88%

— ChEMBL document CHEMBL3046561, “Feeding deterrents from Dictamnus dasycarpus Turcz against two stored-product insects” (J Agric Food Chem, 2002)
